Several values for one entry are separate records, joined by “and”; a condition that tells them apart may be missing. Equal entries are not always repeated.
Legend:
[1] = system: Alpha-2 Adrenergic Receptor; experiment: Involvement of adrenergic receptors; assay type: in vivo, mice
Balb C mice [2] = experiment: Formalin-induced paw-licking test
Balb C mice [3] = experiment: Acetic acid induced writhing test; assay type: in vivo; conditions: 50 mg/kg
COX-1 = COX-1 (Homo sapiens, UniProt P23219); experiment: Cyclooxygenase-1; assay type: biochemical; conditions: IC50 COX-1, ±SEM, triplicate
COX-2 = molecular target: T1, COX-2 (Homo sapiens, UniProt P35354); experiment: Cyclooxygenase-2; assay type: biochemical; conditions: for IC50: IC50 COX-2, ±SEM, triplicate
T1 sequence (P35354 18-604): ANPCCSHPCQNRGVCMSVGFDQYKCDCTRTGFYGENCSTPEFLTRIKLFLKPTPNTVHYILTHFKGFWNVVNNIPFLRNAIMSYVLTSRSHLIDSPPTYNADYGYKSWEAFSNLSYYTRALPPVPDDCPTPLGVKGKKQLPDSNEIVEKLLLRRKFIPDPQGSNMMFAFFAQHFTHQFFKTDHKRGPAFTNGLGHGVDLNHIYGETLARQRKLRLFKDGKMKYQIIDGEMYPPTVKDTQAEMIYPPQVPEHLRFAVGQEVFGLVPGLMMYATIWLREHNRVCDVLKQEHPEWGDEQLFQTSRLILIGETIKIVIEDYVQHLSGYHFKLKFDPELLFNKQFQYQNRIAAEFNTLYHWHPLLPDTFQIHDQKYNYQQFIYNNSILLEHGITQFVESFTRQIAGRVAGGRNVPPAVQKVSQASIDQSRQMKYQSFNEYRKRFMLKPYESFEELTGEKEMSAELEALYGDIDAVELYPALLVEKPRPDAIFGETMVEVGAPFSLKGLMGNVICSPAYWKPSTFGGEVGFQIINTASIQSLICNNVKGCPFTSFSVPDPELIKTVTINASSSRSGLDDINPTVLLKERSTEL

Balb C mice [4] = experiment: Acute toxicity study; assay type: in vivo; conditions: I/P, highest tested dose 150 mg/kg, 24 hours
Balb C mice [5] = experiment: Tail immersion; assay type: in vivo
Dopaminergic Receptor = experiment: Involvement of dopaminergic receptors; assay type: in vivo, mice
[6] = 10 mg/kg, with naloxone (N, 2 mg/kg s.c.)
[7] = 25 mg/kg after yohimbine (YH, 1 mg/kg)
[8] = 50 mg/kg after yohimbine (YH, 1 mg/kg)
[9] = 25 mg/kg after haloperidol (HL, 1 mg/kg)
[10] = 50 mg/kg after haloperidol (HL, 1 mg/kg)
[11] = 25 mg/kg, with naloxone (N, 2 mg/kg s.c.)
[12] = 50 mg/kg, with naloxone (N, 2 mg/kg s.c.)
[13] = 5 mg/kg, with naloxone (N, 2 mg/kg s.c.)
[14] = haloperidol alone, 1 mg/kg i.p.

COX-1, sequence (P23219 24-599): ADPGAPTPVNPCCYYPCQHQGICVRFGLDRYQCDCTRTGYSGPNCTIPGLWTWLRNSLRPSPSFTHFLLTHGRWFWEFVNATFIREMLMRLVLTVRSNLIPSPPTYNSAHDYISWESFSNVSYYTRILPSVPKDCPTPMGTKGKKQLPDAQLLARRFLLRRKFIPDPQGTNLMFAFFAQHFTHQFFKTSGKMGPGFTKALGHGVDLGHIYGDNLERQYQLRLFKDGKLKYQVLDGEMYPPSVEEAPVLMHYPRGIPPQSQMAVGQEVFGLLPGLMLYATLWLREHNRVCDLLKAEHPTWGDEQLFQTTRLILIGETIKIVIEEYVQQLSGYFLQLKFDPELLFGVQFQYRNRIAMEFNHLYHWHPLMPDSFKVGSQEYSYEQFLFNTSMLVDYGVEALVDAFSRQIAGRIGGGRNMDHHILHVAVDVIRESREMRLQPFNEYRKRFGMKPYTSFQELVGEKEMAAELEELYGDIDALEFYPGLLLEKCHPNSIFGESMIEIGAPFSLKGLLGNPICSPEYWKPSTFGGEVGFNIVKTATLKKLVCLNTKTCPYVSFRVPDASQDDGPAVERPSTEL

Question: With COC(=O)[C@@H]1[C@H]2C[C@H]3c4[nH]c5ccccc5c4CCN3C[C@@H]2CC[C@@H]1O [Yohimbine, yohimbine, reference compound] as the molecule, how does the “% Activity” value ([1]; yohimbine alone, 1 mg/kg i.p.) read?
Answer: 15.08±1.15%

Question: And the Writhing ([1]; yohimbine alone, 1 mg/kg i.p.)?
Answer: 57.4±2.02

Question: COc1ccc2c(c1)c(CC(=O)O)c(C)n2C(=O)c1ccc(Cl)cc1 [Indomethacin, indomethacin, reference compound] was tested. Which “Inhibition (%) 1st Phase” value (Balb C mice [2]; 10 mg/kg) did it give?
Answer: 23.69±3.24%

Question: And the “Inhibition (%) 2nd Phase” value (Balb C mice [2]; 10 mg/kg)?
Answer: 74.34±2.86%

Question: What about the “Licking Time 1st Phase” value (Balb C mice [2]; 10 mg/kg) of the same molecule?
Answer: 38.65 ± 1.37 s

Question: What about the “Licking Time 2nd Phase” value (Balb C mice [2]; 10 mg/kg) of the same molecule?
Answer: 18.96 ± 1.342 s

Question: And the “Inhibition (%) 1st Phase” value (Balb C mice [2]; [6])?
Answer: 11.64±1.20%

Question: And the “Licking Time 1st Phase” value (Balb C mice [2]; [6])?
Answer: 44.75 ± 1.76 s

Question: And the “Licking Time 2nd Phase” value (Balb C mice [2]; [6])?
Answer: 25.00 ± 1.249 s

Question: With O=C(O)Cc1ccccc1Nc1c(Cl)cccc1Cl [diclofenac sodium] as the molecule, how does the Inhibition of writhing (Balb C mice [3]; n=6) read?
Answer: 85%

Question: What about the Inhibition of writhing (Balb C mice [3]; n=6, listed as diclofenac) of the same molecule?
Answer: 84.96%

Question: Which results are given for CC(=O)CC(C[N+](=O)[O-])c1ccccc1 (stereo not shown) [Compound 9, 5-nitro-4-phenylpentan-2-one]?
Answer: IC50 (COX-1): 67.6 ± 1.02 µM; Selectivity Index (SI) (IC50 COX-1/IC50 COX-2) (COX-2): 0.91; IC50 (COX-2): 73.5 ± 1.38 µM

Question: Which results are given for CCC[C@](C)(C=O)[C@@H]1CC(=O)N(c2ccccc2)C1=O [Compound 4, (S)-2-((S)-2,5-dioxo-1-phenylpyrrolidin-3-yl)-2-methylpentanal]?
Answer: IC50 (COX-1): 128 µM; Selectivity Index (SI) (IC50 COX-1/IC50 COX-2) (COX-2): 1.94; IC50 (COX-2): 65 µM and 65.9 µM; Acute toxicity (adverse effect, change in body weight, mortality) (Balb C mice [4]): safe; Inhibition of writhing (Balb C mice [3]; n=6): 52.2%; Tail flick Response (%) (Balb C mice [5]; 25 mg/kg i.p., 15 Minutes): 11.1%; Tail flick Response (%) (Balb C mice [5]; 25 mg/kg i.p., 30 Minutes): 14.8%; Tail flick Response (%) (Balb C mice [5]; 25 mg/kg i.p., 45 Minutes): 16.3%; Tail flick Response (%) (Balb C mice [5]; 25 mg/kg i.p., 60 Minutes): 18.9%; Tail flick Response (%) (Balb C mice [5]; 25 mg/kg i.p., 75 Minutes): 29.5%; Tail flick Response (%) (Balb C mice [5]; 25 mg/kg i.p., 75 Minutes, listed as Comp 4): 29.5%; Tail flick Response (%) (Balb C mice [5]; 25 mg/kg i.p., 90 Minutes): 19.8%; Tail flick Response (%) (Balb C mice [5]; 50 mg/kg i.p., 15 Minutes): 14.8%; Tail flick Response (%) (Balb C mice [5]; 50 mg/kg i.p., 30 Minutes): 22.7%; Tail flick Response (%) (Balb C mice [5]; 50 mg/kg i.p., 45 Minutes): 33.7%; Tail flick Response (%) (Balb C mice [5]; 50 mg/kg i.p., 60 Minutes): 42.1%; Tail flick Response (%) (Balb C mice [5]; 50 mg/kg i.p., 75 Minutes): 53.4%; Tail flick Response (%) (Balb C mice [5]; 50 mg/kg i.p., 75 Minutes, listed as Comp 4): 53.4%; Tail flick Response (%) (Balb C mice [5]; 50 mg/kg i.p., 90 Minutes): 46.2%; Tail flick Response (%) (Balb C mice [5]; 50 mg/kg i.p., 90 Minutes, listed as Comp 4): 46.2%; % Activity [1, 7]: 15.58±1.44%; Writhing [1, 7]: 57.09±2.20; % Activity [1, 8]: 16.08±1.08%; Writhing [1, 8]: 56.73±1.05; % Activity (Dopaminergic Receptor; [9]): 16.52±1.25%; Writhing (Dopaminergic Receptor; [9]): 56.42±1.05; % Activity (Dopaminergic Receptor; [10]): 16.70±1.16%; Writhing (Dopaminergic Receptor; [10]): 56.23±1.05; Inhibition (%) 1st Phase (Balb C mice [2]; 25 mg/kg): 22.30±0.85%; Inhibition (%) 2nd Phase (Balb C mice [2]; 25 mg/kg): 38.94±2.88%; Licking Time 1st Phase (Balb C mice [2]; 25 mg/kg): 39.35 ± 1.231 s; Licking Time 2nd Phase (Balb C mice [2]; 25 mg/kg): 45.12 ± 1.145 s; Inhibition (%) 1st Phase (Balb C mice [2]; [11]): 17.47±1.89%; Inhibition (%) 2nd Phase (Balb C mice [2]; [11]): 33.76±2.53%; Licking Time 1st Phase (Balb C mice [2]; [11]): 41.80 ± 1.33 s; Licking Time 2nd Phase (Balb C mice [2]; [11]): 48.95 ± 1.40 s; Inhibition (%) 1st Phase (Balb C mice [2]; 50 mg/kg): 36.16±4.47%; Inhibition (%) 2nd Phase (Balb C mice [2]; 50 mg/kg): 50.66±3.84%; Licking Time 1st Phase (Balb C mice [2]; 50 mg/kg): 32.33 ± 1.356 s; Licking Time 2nd Phase (Balb C mice [2]; 50 mg/kg): 36.45 ± 1.232 s; Inhibition (%) 1st Phase (Balb C mice [2]; [12]): 23.69±1.44%; Inhibition (%) 2nd Phase (Balb C mice [2]; [12]): 42.15±1.43%; Licking Time 1st Phase (Balb C mice [2]; [12]): 38.65 ± 1.25 s; Licking Time 2nd Phase (Balb C mice [2]; [12]): 42.75 ± 1.65 s

Question: How did the “Tail flick Response (%)” value (Balb C mice [5]; 5 mg/kg, 15 Minutes) turn out when CN1CC[C@]23c4c5ccc(O)c4O[C@H]2[C@@H](O)C=C[C@H]3[C@H]1C5 [Morphine, morphine, reference compound] was run?
Answer: 48.1%

Question: And the “Tail flick Response (%)” value (Balb C mice [5]; 5 mg/kg, 30 Minutes)?
Answer: 56.1%

Question: What about the “Tail flick Response (%)” value (Balb C mice [5]; 5 mg/kg, 45 Minutes) of the same molecule?
Answer: 75%

Question: And the “Tail flick Response (%)” value (Balb C mice [5]; 5 mg/kg, 60 Minutes)?
Answer: 85%

Question: What about the “Tail flick Response (%)” value (Balb C mice [5]; 5 mg/kg, 75 Minutes) of the same molecule?
Answer: 80.2%

Question: What about the “Tail flick Response (%)” value (Balb C mice [5]; 5 mg/kg, 75 Minutes, listed as morphine) of the same molecule?
Answer: 80.2%

Question: And the “Tail flick Response (%)” value (Balb C mice [5]; 5 mg/kg, 90 Minutes)?
Answer: 78.4%

Question: What about the “Tail flick Response (%)” value (Balb C mice [5]; 5 mg/kg, 90 Minutes, listed as morphine) of the same molecule?
Answer: 78.4%

Question: And the “Inhibition (%) 1st Phase” value (Balb C mice [2]; 5 mg/kg)?
Answer: 87.16±3.32%

Question: What about the “Inhibition (%) 2nd Phase” value (Balb C mice [2]; 5 mg/kg) of the same molecule?
Answer: 96.34±0.66%

Question: What about the “Licking Time 1st Phase” value (Balb C mice [2]; 5 mg/kg) of the same molecule?
Answer: 6.50 ± 1.153 s

Question: What about the “Licking Time 2nd Phase” value (Balb C mice [2]; 5 mg/kg) of the same molecule?
Answer: 2.70 ± 1.340 s

Question: And the “Inhibition (%) 1st Phase” value (Balb C mice [2]; [13])?
Answer: 2.68±1.20%

Question: What about the “Inhibition (%) 2nd Phase” value (Balb C mice [2]; [13]) of the same molecule?
Answer: 1.44±0.28%

Question: And the “Licking Time 1st Phase” value (Balb C mice [2]; [13])?
Answer: 49.29 ± 1.52 s

Question: What about the “Licking Time 2nd Phase” value (Balb C mice [2]; [13]) of the same molecule?
Answer: 72.83 ± 1.152 s

Question: Which results are given for O=C(CCCN1CCC(O)(c2ccc(Cl)cc2)CC1)c1ccc(F)cc1 [Haloperidol, haloperidol, reference compound]?
Answer: % Activity (Dopaminergic Receptor; [14]): 17.50±1.28%; Writhing (Dopaminergic Receptor; [14]): 55.78±2.02
